Read-outs that look alike come from different tables or passages of the source.
Experiments:
[1] = tested on: A. baumannii KW1 strains with β-lactamase plasmids; experiment: Etest MIC of β-lactams, extended-spectrum β-lactamase, AmpC β-lactamase or carbapenemase (Table 18); format: cell-based, Acinetobacter baumannii; settings: production of each carbapenemase tested
Summary of the method: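 A. baumannii KW1 transformed by electroporation with pYMAb5 or pYMAb5Tc carrying PCR-cloned resistance genes plus flanking regions from clinical plasmids. MICs by Etest; values between two-fold dilutions rounded up to the next two-fold value.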

[2] = tested on: K. pneumoniae NVT1001 harbouring the pACYC177 plasmid with blaOXA-48; experiment: Mouse peritonitis-sepsis infection model; format: in vivo, Klebsiella pneumoniae; settings: BALB/c mice, 30 mg/kg
Protocol: Pathogen-free 6- to 8-week-old male BALB/c mice were obtained from the National Laboratory Animal Center (Taiwan) and maintained in the pathogen-free vivarium of the Laboratory Animal Center of National Defense Medical Center (Taiwan). K. pneumoniae NVT1001 harbouring the pACYC177 plasmid with blaOXA-48 was cultured overnight at 37° C. in BHI broth and then diluted (1:100) in fresh BHI broth. The culture was incubated until the mid-exponential growth phase, and the cells were then washed once, resuspended in 0.85% sterile saline, and adjusted to the desired concentrations according to the OD600 value. The concentrations were verified by plating the cells to determine viable counts. […] Meanwhile, antibiotic doses were prepared in 0.85% sterile saline. At 1 hour post-inoculation, antibiotic or 0.85% sterile saline alone was administered as a single subcutaneous injection with a volume of 0.3 mL per dose. The mice were then monitored daily for 7 days to measure survival.

[3] = tested on: K. pneumoniae NVT1001 harbouring the pACYC177 plasmid with blaOXA-48; experiment: Broth microdilution MIC (CLSI); format: cell-based; settings: Klebsiella pneumoniae; broth microdilution test; NVT1001 with pACYC177 blaOXA-48
Protocol: (§1) The MICs of antibiotics were determined using the Etest (Biodisk AB, Sweden) according to the manufacturer's instructions. The MICs from the Etest, which fall between standard two-fold dilutions, were rounded up to the next highest two-fold value. The MICs of ceftazidime and cefotaxime against K. pneumoniae NVT1001 harbouring the pACYC177 plasmid with blaOXA-48 were further determined using a broth microdilution test according to the recommendations of the CLSI,^25 and the results were interpreted according to the breakpoints established by the CLSI in 2017.^25 Meanwhile, due to the lack of CLSI breakpoints in 2016 and 2017, the results for cephalothin were interpreted according to the breakpoints established by the CLSI in 2015,^26 and the results for moxifloxacin were interpreted according to the breakpoints established by the EUCAST in 2017.^27

[4] = tested on: K. pneumoniae NVT1001 gyrA/parC and gyrA/parC/ramR mutants and revertants; experiment: Etest MIC of quinolones, gyrA/parC and gyrA/parC/ramR mutants and their revertants (Table 11); format: cell-based; settings: Klebsiella pneumoniae
Source text: The allelic-exchange method was used to restore the wild-type gene in the K. pneumoniae NVT1001 mutants with constructed chromosome-mediated resistance mechanisms, as described by Tsai et al.^19 Briefly, a DNA fragment of the entire wild-type gene sequence along with flanking regions was amplified from K. pneumoniae NVT1001 using PCR with specific primers. The resulting PCR fragment was digested and then cloned into pUT-KB. For homologous recombination, this plasmid was transformed into E. coli S17-1 λpir^23 via electroporation and mobilized into the K. pneumoniae NVT1001 mutant via conjugation. […] After incubation in 20 mL BHI broth for 6 hours at 37° C. in the absence of kanamycin, the fully grown cultures were spread onto LB agar plates supplemented with 10% sucrose. After the double crossover occurred, the sucrose-resistant and kanamycin-susceptible colonies were selected, and the restoration of the wild-type gene was confirmed via DNA sequencing.
as §1

[5] = tested on: K. pneumoniae NVT1001 strains with QnrB, QnrS or AAC(6′)-Ib-cr plasmids; experiment: Etest MIC of quinolones, GyrA/ParC mutations, ΔramR and/or QnrB, QnrS or AAC(6′)-Ib-cr (Table 12); format: cell-based; settings: Klebsiella pneumoniae
Protocol: DNA fragments of the resistance genes along with their flanking regions were amplified from clinical plasmids via PCR with specific primer pairs. The resulting PCR fragments were digested and then cloned into the plasmid pACYC177 or pACYC184. The resulting plasmids were then transformed into K. pneumoniae strain NVT1001 via electroporation. The recombinant bacteria were plated onto LB agar plates containing kanamycin (50 mg/L) or chloramphenicol (50 mg/L), and the presence of the cloned gene was confirmed via PCR and DNA sequencing.
as §1

[6] = S83F/D87N/S80I::F83S/N87D/I80S revertant, read-out: MIC
[7] = S83F/D87N/S80I::I80S revertant, read-out: MIC
[8] = S83F/D87N/S80I::N87D revertant, read-out: MIC
[9] = S83F/D87N/S80I::N87D/I80S revertant, read-out: MIC
[10] = S83I/D87N/S80I::I80S revertant, read-out: MIC
[11] = S83I/D87N/S80I::I83S/N87D/I80S revertant, read-out: MIC
[12] = S83I/D87N/S80I::N87D revertant, read-out: MIC
[13] = S83I/D87N/S80I::N87D/I80S revertant, read-out: MIC
[14] = S83L/D87N/S80I::I80S revertant, read-out: MIC
[15] = S83L/D87N/S80I::L83S/N87D/I80S revertant, read-out: MIC
[16] = S83L/D87N/S80I::N87D revertant, read-out: MIC
[17] = S83L/D87N/S80I::N87D/I80S revertant, read-out: MIC
[18] = S83Y/D87N/S80I::I80S revertant, read-out: MIC
[19] = S83Y/D87N/S80I::N87D revertant, read-out: MIC
[20] = S83Y/D87N/S80I::N87D/I80S revertant, read-out: MIC
[21] = S83Y/D87N/S80I::Y83S/N87D/I80S revertant, read-out: MIC
[22] = ΔramR/S83I/D87N/S80I:: ramR/I83S revertant
[23] = ΔramR/S83I/D87N/S80I:: ramR/I83S/I80S revertant
[24] = ΔramR/S83I/D87N/S80I:: ramR/I83S/N87D revertant
[25] = ΔramR/S83I/D87N/S80I::I83S/N87D/I80S revertant
[26] = ΔramR/S83I/D87N/S80I::N87D revertant
[27] = ΔramR/S83I/D87N/S80I::N87D/I80S revertant
[28] = ΔramR/S83I/D87N/S80I::ramR/I83S/N87D/I80S
[29] = AAC(6′)-Ib-cr on pACYC177, S83I mutant
[30] = AAC(6′)-Ib-cr on pACYC177, S83I/D87N/S80I mutant
[31] = AAC(6′)-Ib-cr on pACYC177, S83I/S80I mutant
[32] = AAC(6′)-Ib-cr on pACYC177, WT (NVT1001), read-out: MIC
[33] = AAC(6′)-Ib-cr on pACYC177, ΔramR mutant
[34] = AAC(6′)-Ib-cr on pACYC177, ΔramR/S83I mutant
[35] = AAC(6′)-Ib-cr on pACYC177, ΔramR/S83I/D87N/S80I mutant
[36] = AAC(6′)-Ib-cr on pACYC177, ΔramR/S83I/S80I mutant
[37] = QnrB on pACYC177, S83I/D87N/S80I mutant
[38] = QnrB on pACYC177, S83I/S80I mutant
[39] = QnrB on pACYC177, WT (NVT1001), read-out: MIC
[40] = QnrB on pACYC177, ΔramR/S83I mutant
[41] = QnrB on pACYC177, ΔramR/S83I/D87N/S80I mutant
[42] = QnrB on pACYC177, ΔramR/S83I/S80I mutant
[43] = QnrS on pACYC177, S83I/D87N/S80I mutant
[44] = QnrS on pACYC177, S83I/S80I mutant
[45] = QnrS on pACYC177, WT (NVT1001), read-out: MIC
[46] = QnrS on pACYC177, ΔramR/S83I mutant
[47] = QnrS on pACYC177, ΔramR/S83I/D87N/S80I mutant
[48] = QnrS on pACYC177, ΔramR/S83I/S80I mutant
[49] = no supplemental plasmid, S83I mutant
[50] = no supplemental plasmid, S83I/D87N/S80I mutant
[51] = no supplemental plasmid, S83I/S80I mutant
[52] = no supplemental plasmid, WT (NVT1001), read-out: MIC
[53] = no supplemental plasmid, ΔramR mutant
[54] = no supplemental plasmid, ΔramR/S83I mutant
[55] = no supplemental plasmid, ΔramR/S83I/D87N/S80I mutant
[56] = no supplemental plasmid, ΔramR/S83I/S80I mutant

C[C@H]1[C@H](NC(=O)/C(=N\OC(C)(C)C(=O)O)c2csc(N)n2)C(=O)N1S(=O)(=O)O [Aztreonam]
no increase effects: effects on the MIC [1]

CO/N=C(\C(=O)N[C@@H]1C(=O)N2C(C(=O)O)=C(COC(C)=O)CS[C@H]12)c1csc(N)n1 [Cefotaxime]
no mice survived: survival of mice [2]
2 µg/mL: MIC [3]

CCn1cc(C(=O)O)c(=O)c2cc(F)c(N3CCNCC3)cc21 [Norfloxacin, norfloxacin]
64 µg/mL: MIC ([4]; S83I/D87N/S80I mutant) | MIC ([4]; S83L/D87N/S80I mutant) | MIC [5, 40] | MIC [5, 44] | MIC [5, 46] | MIC [5, 50]
128 µg/mL: MIC [4, 26] | MIC [5, 31] | MIC [5, 34] | MIC [5, 43] | MIC [5, 56]
4 µg/mL: MIC [4, 8] | MIC [4, 19]
> 256 µg/mL: MIC ([4]; ΔramR/S83I/D87N/S80I mutant) | MIC [5, 30] | MIC [5, 35] | MIC [5, 36] | MIC [5, 37] | MIC [5, 38] | MIC [5, 41] | MIC [5, 42] | MIC [5, 47] | MIC [5, 48] | MIC [5, 55]
8 µg/mL: MIC [4, 16] | MIC [4, 27] | MIC [5, 29] | MIC [5, 33] | MIC ([5]; QnrB on pACYC177, S83I mutant) | MIC ([5]; QnrS on pACYC177, S83I mutant) | MIC [5, 54]
2 µg/mL: MIC [4, 7] | MIC [4, 9] | MIC [4, 10] | MIC [4, 13] | MIC [4, 14] | MIC [4, 17] | MIC [4, 18] | MIC [4, 20] | MIC [4, 22] | MIC [4, 25] | MIC [5, 39] | MIC [5, 45] | MIC [5, 49] | MIC [5, 53]
16 µg/mL: MIC [4, 12] | MIC ([5]; QnrB on pACYC177, ΔramR mutant) | MIC [5, 51]
0.25 µg/mL: MIC [4, 6] | MIC [4, 11] | MIC [4, 15] | MIC [4, 21] | MIC [4, 24] | MIC [4, 28] | MIC [5, 52]
1 µg/mL: MIC [4, 23] | MIC [5, 32]
32 µg/mL: MIC ([4]; S83F/D87N/S80I mutant) | MIC ([4]; S83Y/D87N/S80I mutant) | MIC ([5]; QnrS on pACYC177, ΔramR mutant)

CC1COc2c(N3CCN(C)CC3)c(F)cc3c(=O)c(C(=O)O)cn1c23 (stereo not drawn) [Ofloxacin, ofloxacin]
16 µg/mL: MIC ([4]; S83F/D87N/S80I mutant) | MIC ([4]; S83Y/D87N/S80I mutant) | MIC ([5]; QnrS on pACYC177, ΔramR mutant)
2 µg/mL: MIC [4, 7] | MIC [4, 9] | MIC [4, 10] | MIC [4, 13] | MIC [4, 14] | MIC [4, 17] | MIC [4, 18] | MIC [4, 20] | MIC [4, 25] | MIC [5, 33] | MIC [5, 49] | MIC [5, 53]
4 µg/mL: MIC [4, 8] | MIC [4, 16] | MIC [4, 19] | MIC [5, 29] | MIC [5, 39] | MIC [5, 45] | MIC [5, 51]
1 µg/mL: MIC [4, 22] | MIC [4, 23]
> 32 µg/mL: MIC ([4]; ΔramR/S83I/D87N/S80I mutant) | MIC [4, 26] | MIC [4, 27] | MIC [5, 34] | MIC [5, 35] | MIC [5, 36] | MIC [5, 37] | MIC [5, 38] | MIC [5, 40] | MIC [5, 41] | MIC [5, 42] | MIC [5, 43] | MIC [5, 44] | MIC [5, 46] | MIC [5, 47] | MIC [5, 48] | MIC [5, 54] | MIC [5, 55] | MIC [5, 56]
0.25 µg/mL: MIC [4, 6] | MIC [4, 11] | MIC [4, 15] | MIC [4, 21] | MIC [4, 24] | MIC [4, 28] | MIC [5, 32] | MIC [5, 52]
32 µg/mL: MIC ([4]; S83I/D87N/S80I mutant) | MIC ([4]; S83L/D87N/S80I mutant) | MIC [5, 30] | MIC ([5]; QnrB on pACYC177, ΔramR mutant) | MIC [5, 50]
8 µg/mL: MIC [4, 12] | MIC [5, 31] | MIC ([5]; QnrB on pACYC177, S83I mutant) | MIC ([5]; QnrS on pACYC177, S83I mutant)

Source: US10760110B2, “Antibiotic testing and screening system” (priority 2017, dated 2020)
